Data: PMC9822073, “Synthesis, Cytotoxic Evaluation, and Structure-Activity Relationship of Substituted Quinazolinones as Cyclin-Dependent Kinase 9 Inhibitors” (Molecules, 2022)
Read-outs that look alike come from different tables or passages of the source.

Legend:
MCF-7 cell line = test: MTT metabolic (antiproliferative) assay; settings: read-out: Cytotoxicity IC50, MCF-7, 48 h, mean ± SD
Protocol: The antiproliferative activity of the twenty-seven compounds was evaluated by 3-(4,5-dimethylthiazol-2-yl)-2,5-diphenyltetrazolium bromide (MTT) metabolic assay against the MCF-7 cell line, according to a previous method [26].

CDK9/cyclin T = CDK9/cyclin T (Homo sapiens, UniProt P50750); test: In vitro luminescent CDK9 kinase assay (Kinase-Glo MAX); assay type: biochemical; settings: for reduction in CDK9 inhibitory activity: compared with compound 25
Protocol: In vitro luminescent CDK9 kinase assay was performed as reported previously using Kinase- Glo® MAX as a detection reagent. Briefly, 5 μL of each inhibitor in concentrations ranging from 10 μM to 1 nM (10 μM, 1 μM, 0.1 μM, 0.01 μM, and 0.001 μM) and 10 μL of enzyme substrate were mixed in 20 μL of kinase assay buffer (obtained from BPS Bioscience, catalog #79334) at room temperature. Then 20 μL of 5 ng/μL CDK9/cyclin T was added to the mixture to initiate the reaction. After 45 min, 50 μL of Kinase-Glo® Max reagent was added, and the resulting mixture was incubated for 15 min at room temperature. The chemiluminescence was measured microplate reader, and IC50 values were calculated using Prism 8.0 (GraphPad Software, San Diego, CA, USA).

CDK9 = system: CDK9; design: method as in PMID 33142413, PMID 24150998; settings: Figure 2; cited from earlier work
[1] = CDK9 IC50 as used for LE and LLE, read-out: IC50 (CDK9, Table 4)
[2] = negative log of the CDK9 IC50, read-out: pIC50 (converted)

CDK9/cyclin T, sequence (P50750 whole entry): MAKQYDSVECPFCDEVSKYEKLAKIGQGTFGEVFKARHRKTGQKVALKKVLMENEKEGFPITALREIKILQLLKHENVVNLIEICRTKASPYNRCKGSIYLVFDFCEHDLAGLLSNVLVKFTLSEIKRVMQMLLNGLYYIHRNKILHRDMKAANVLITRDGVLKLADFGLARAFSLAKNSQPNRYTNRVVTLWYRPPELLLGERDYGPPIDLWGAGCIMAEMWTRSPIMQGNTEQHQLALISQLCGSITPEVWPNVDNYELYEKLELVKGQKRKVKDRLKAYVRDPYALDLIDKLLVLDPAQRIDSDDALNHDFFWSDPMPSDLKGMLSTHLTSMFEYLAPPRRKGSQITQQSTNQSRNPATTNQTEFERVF
CDK9/cyclin T, sequence (O60563 whole entry partner): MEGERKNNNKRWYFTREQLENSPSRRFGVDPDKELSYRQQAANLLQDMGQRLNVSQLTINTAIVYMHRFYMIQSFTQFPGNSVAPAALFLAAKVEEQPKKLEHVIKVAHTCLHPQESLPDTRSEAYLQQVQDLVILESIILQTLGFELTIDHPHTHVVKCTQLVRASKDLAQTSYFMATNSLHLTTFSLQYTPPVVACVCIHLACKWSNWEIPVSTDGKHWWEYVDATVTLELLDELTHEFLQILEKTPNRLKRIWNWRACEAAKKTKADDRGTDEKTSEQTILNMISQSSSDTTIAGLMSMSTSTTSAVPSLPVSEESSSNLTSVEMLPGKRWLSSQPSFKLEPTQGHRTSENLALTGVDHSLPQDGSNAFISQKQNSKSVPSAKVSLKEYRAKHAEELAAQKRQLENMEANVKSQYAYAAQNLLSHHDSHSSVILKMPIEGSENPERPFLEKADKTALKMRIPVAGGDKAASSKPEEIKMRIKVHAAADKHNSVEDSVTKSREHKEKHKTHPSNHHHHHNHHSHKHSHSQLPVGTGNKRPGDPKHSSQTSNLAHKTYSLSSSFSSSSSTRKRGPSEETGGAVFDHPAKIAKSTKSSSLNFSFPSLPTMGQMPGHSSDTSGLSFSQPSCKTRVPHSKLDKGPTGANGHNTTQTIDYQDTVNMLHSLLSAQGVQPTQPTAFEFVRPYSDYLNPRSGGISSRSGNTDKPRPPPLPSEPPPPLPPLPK

| IC50 (CDK9/cyclin T; [1]) | IC50 (CDK9/cyclin T; mean ± SD, read-out: CDK9 IC50) | Structure (SMILES) | IC50 (MCF-7 cell line) | further results |
| --- | --- | --- | --- | --- |
| 0.644 µM | 0.644 ± 0.007 µM | NS(=O)(=O)c1ccc(CCn2c(=S)[nH]c3ccccc3c2=O)cc1 [Compound 1, 2-Mercapto-3-(4-sulfamoylphenethyl)quinazolin-4-one] | 0.65 ± 0.15 µM | – |
| 0.454 µM | 0.454 ± 0.006 µM | NC(=O)CSc1nc2ccccc2c(=O)n1CCc1ccc(S(N)(=O)=O)cc1 [Compound 2] | 2.31 ± 0.39 µM | – |
| 0.421 µM | 0.421 ± 0.006 µM | NS(=O)(=O)c1ccc(CCn2c(SCC(=O)Nc3ccccc3)nc3ccccc3c2=O)cc1 [Compound 3] | 0.82 ± 0.08 µM | – |
| 0.788 µM | 0.788 ± 0.012 µM | Cc1ccc(NC(=O)CSc2nc3ccccc3c(=O)n2CCc2ccc(S(N)(=O)=O)cc2)cc1 [Compound 4] | 0.16 ± 0.02 µM | – |
| 0.829 µM | 0.829 ± 0.014 µM | CC(=O)c1ccc(NC(=O)CSc2nc3ccccc3c(=O)n2CCc2ccc(S(N)(=O)=O)cc2)cc1 [Compound 5] | 0.18 ± 0.09 µM | – |
| 0.463 µM | 0.463 ± 0.007 µM | COc1ccc(NC(=O)CSc2nc3ccccc3c(=O)n2CCc2ccc(S(N)(=O)=O)cc2)cc1 [Compound 6] | 4.65 ± 1.38 µM | – |
| 0.115 µM | 0.115 ± 0.002 µM | CCOc1ccc(NC(=O)CSc2nc3ccccc3c(=O)n2CCc2ccc(S(N)(=O)=O)cc2)cc1 [Compound 7] | 1.57 ± 0.04 µM | increase of CDK9 inhibitory activity (CDK9/cyclin T; compared to the hit compound 1): around 6 fold |
| 0.501 µM | 0.501 ± 0.009 µM | COc1cc(NC(=O)CSc2nc3ccccc3c(=O)n2CCc2ccc(S(N)(=O)=O)cc2)cc(OC)c1OC [Compound 8] | 2.48 ± 0.32 µM | – |
| 0.131 µM | 0.131 ± 0.002 µM | NS(=O)(=O)c1ccc(CCn2c(SCC(=O)Nc3ccc(Br)cc3)nc3ccccc3c2=O)cc1 [Compound 9] | 1.72 ± 0.26 µM | – |
| 0.193 µM | 0.193 ± 0.003 µM | NS(=O)(=O)c1ccc(CCn2c(SCC(=O)Nc3ccc(Cl)cc3)nc3ccccc3c2=O)cc1 [Compound 10] | 1.04 ± 0.07 µM | – |
| 0.336 µM | 0.336 ± 0.005 µM | NS(=O)(=O)c1ccc(CCn2c(SCC(=O)Nc3ccc(F)cc3)nc3ccccc3c2=O)cc1 [Compound 11] | 3.86 ± 0.78 µM | – |
| 0.218 µM | 0.218 ± 0.004 µM | NS(=O)(=O)c1ccc(CCn2c(SCC(=O)NCc3ccc(F)cc3)nc3ccccc3c2=O)cc1 [Compound 12] | 0.69 ± 0.23 µM | – |
| 0.334 µM | 0.334 ± 0.006 µM | COc1ccc(CNC(=O)CSc2nc3ccccc3c(=O)n2CCc2ccc(S(N)(=O)=O)cc2)cc1 [Compound 13] | 0.84 ± 0.15 µM | – |
| 0.229 µM | 0.229 ± 0.004 µM | COc1ccc(CNC(=O)CSc2nc3ccccc3c(=O)n2CCc2ccc(S(N)(=O)=O)cc2)cc1OC [Compound 14] | 0.59 ± 0.1 µM | – |
| 0.444 µM | 0.444 ± 0.007 µM | CC(Sc1nc2ccccc2c(=O)n1CCc1ccc(S(N)(=O)=O)cc1)C(=O)Nc1ccccc1 (centres unmarked) [Compound 15] | 0.67 ± 0.18 µM | – |
| – | 0.35 ± 0.006 µM | CC(Sc1nc2ccccc2c(=O)n1CCc1ccc(S(N)(=O)=O)cc1)C(=O)Nc1ccc(Cl)cc1 (centres unmarked) [Compound 16] | 0.73 ± 0.01 µM | IC50 (CDK9/cyclin T; [2]): 0.347 µM |
| 0.639 µM | 0.639 ± 0.004 µM | O=c1[nH]cnc2ccc(I)cc12 [Compound 17] | 3.88 ± 0.12 µM | – |
| 0.296 µM | 0.296 ± 0.003 µM | O=c1[nH]c(-c2cccs2)nc2ccc(I)cc12 [Compound 18] | 21.4 ± 0.68 µM | – |
| 0.282 µM | 0.282 ± 0.003 µM | Cc1ccc(-c2nc3ccc(Cl)cc3c(=O)[nH]2)cc1 [Compound 19] | 12.3 ± 0.39 µM | – |
| 0.434 µM | 0.434 ± 0.003 µM | O=c1[nH]c(-c2ccc(Cl)cc2)nc2ccc([N+](=O)[O-])cc12 [Compound 20] | 6.07 ± 0.19 µM | reduction in potency against CDK9 (CDK9/cyclin T; compound 20 versus compound 19): 1 fold |
| – | 0.21 ± 0.003 µM | Cc1ccc(NC(=O)c2cccc(Br)c2)c(C(=O)O)c1 [Compound 23, 2-(3-Bromobenzamido)-5-methylbenzoic acid] | 11.5 ± 0.37 µM | melting point: 155 to 157 °C; IC50 (CDK9/cyclin T; [2]): 0.209 µM |
| 0.486 µM | 0.486 ± 0.004 µM | Cc1ccc2nc(-c3cccc(Br)c3)oc(=O)c2c1 [Compound 24, 2-(3-Bromophenyl)-6-methyl-4H-benzo[d][1,3]oxazin-4-one] | 10.4 ± 0.33 µM | reduction in CDK9 inhibitory activity (CDK9/cyclin T): 3 fold |
| 0.142 µM | 0.142 ± 0.001 µM | Cc1ccc2nc(-c3cccc(Br)c3)[nH]c(=O)c2c1 [Compound 25, 2-(3-Bromophenyl)-6-methylquinazolin-4(3H)-one] | 16.8 ± 0.54 µM | – |
| 0.289 µM | 0.289 ± 0.002 µM | Cc1ccc2nc(-c3cccc(Br)c3)[nH]c(=S)c2c1 [Compound 26, 2-(3-Bromophenyl)-6-methylquinazoline-4(3H)-thione] | 5.21 ± 0.17 µM | reduction in CDK9 inhibitory activity (CDK9/cyclin T): 2 fold |
| 0.835 µM | 0.835 ± 0.006 µM | Cc1ccc2nc(-c3cccc(Br)c3)n(N)c(=O)c2c1 [Compound 27, 3-Amino-2-(3-bromophenyl)-6-methylquinazolin-4(3H)-one] | 28.7 ± 0.92 µM | reduction in CDK9 inhibitory activity (CDK9/cyclin T): approximately 6 fold |
| – | 0.21 ± 0.002 µM | Cc1ccc2nc(-c3cccc(Br)c3)n(O)c(=O)c2c1 [Compound 28, 2-(3-Bromophenyl)-3-hydroxy-6-methylquinazolin-4(3H)-one] | 6.27 ± 0.2 µM | IC50 (CDK9/cyclin T; [2]): 0.209 µM |
| – | – | CN1CC[C@H](c2c(O)cc(O)c3c(=O)cc(-c4ccccc4Cl)oc23)[C@H](O)C1 [Flavopiridol, flavopiridol, reference compound] | 0.04 ± 0.001 µM | – |
| – | – | NS(=O)(=O)c1ccc(CCn2c(SCc3ccccc3)nc3ccccc3c2=O)cc1 [VI] | – | IC50 (CDK9): 67 µM |
